# Source: US5639745A, “Fused-bicyclic lactams as interleukin-1β converting enzyme inhibitors” (Sanofi, priority 1995, dated 1997)
# What was measured:
# ICE (IL-1β protease) = biological target: T1, ICE (IL-1β protease) (Homo sapiens, UniProt P29466); assay: modified in vitro enzyme assay, reversible Ki* for ICE (Succinyl-Tyr-Val-Ala-Asp-amino methylcoumarin substrate); assay type: biochemical; conditions: aldehydes
# T1 sequence (P29466 120-297 limits assumed): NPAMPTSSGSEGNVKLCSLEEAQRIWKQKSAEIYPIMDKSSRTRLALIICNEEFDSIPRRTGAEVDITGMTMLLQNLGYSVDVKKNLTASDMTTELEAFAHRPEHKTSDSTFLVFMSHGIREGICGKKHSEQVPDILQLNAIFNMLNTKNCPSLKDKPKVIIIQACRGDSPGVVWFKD
# T1 sequence (P29466 317-404 limits assumed): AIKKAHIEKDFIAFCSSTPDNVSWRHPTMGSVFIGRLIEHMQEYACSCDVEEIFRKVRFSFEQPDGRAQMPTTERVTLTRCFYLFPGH
# Description: Second order rates of inactivation were obtained by using the enzyme assay described in Dolle, R. E.; et al., J. Med Chem. (1994), 37, 563. […] In the case of these reversible inhibitors, the in vitro assay was modified to obtain the reversible Ki * as follows:
# Ki * values for reversible inhibitors were determined by preincubating ICE with various concentrations of inhibitor in 10 mM HEPES (a common laboratory buffer; pH 7.5), 25% glycerol, 1 mM dithiothreitol for 30 minutes at 37 ° C. in a polystyrene 96-well plate. Remaining ICE activity was measured by adding 10 uM Succinyl-Tyrosine-Valine-Alanine-Aspartic acid-amino methylcoumarin (Bachem Bioscience, Inc.) and monitoring the increase in fluorescence at 37° C. using a Fluoroskan II fluorescence plate reader. The Ki * was calculated from a plat of 1/v versus I as described previously (Morrison, J. F. and Cleland, W. W. (1983) Biochemistry 22, 5507-5513.
# [1] = test system: mature IL-1β release from human monocytes; assay: human monocyte pulse chase assay, inhibition of release of mature IL-1β (called In Vivo Assay); assay type: cell-based; conditions: human monocytes stimulated with fixed S. aureus
# Description: In vivo inhibition (IC50) was determined as follows:
# Human monocytes were isolated from heparinized leukopheresis units obtained through Biological Specialty Corporation (Lansdale, Pa.). Monocytes were purified by Ficoll-Hupaque (Pharmacia Fine Chemicals, Piscataway, N.J.) gradient centrifugation and more than 95% pure monocyte populations obtained by centrifugal elutriation. The assay was performed on duplicate samples of freshly isolated human monocytes, cultured in suspension at 37° C. and rotated gently in conical bottom polypropylene tubes (Sardstedt Inc., Princeton, N.J.). Human monocytes at a concentration of 5×10^6 cells/mL were resuspended in 1 mL of RPMI 1640 (a common tissue buffer from M. A. Bioproducts, Walkersville, Md.) containing 1% fetal calf serum (FCS) (HyClone, Logan, Utah) and 50 μg/mL gentamycin (Gibco, Grand Island, N.Y.). The cells were treated either with a compound of the invention (i.e. test compound) or with a non-inhibitor (control compound, typically 0.03% DMSO) for 15 minutes and then activated with 0.01% fixed Staphylococcus aureus (The Enzyme Center, Malden, Mass.) for 1 hour. The cells were then centrifuged and resuspended in 1 mL of cysteine, methionine-free RPMI media containing 1% dialyzed FCS (Hyclone). The cells were pretreated with a test compound or control compound for 15 minutes after which 0.01% fixed S. aureus plus 100 μCi Tran 35-S label (ICN, Irvine, Calif.) was added and the cells incubated at 37° C. for 1 hour. After incubation, cells were centrifuged, washed once in phosphate buffer saline and resuspended in 1 mL RPMI containing 1% fetal calf serum. The cells were again pretreated with a test or control compound for 15 minutes and then 0.01% S. aureus for 2 hours. At the end of the incubation, cells were centrifuged and supernates saved for immunoprecipitation. Cells were washed once in phosphate buffer saline and then lysed in RIPA, a continuous cell media buffer containing 2 mM phenylmethylsulfonyl fluoride, 10 mM iodoacetate, 1 μg/mL pepstatin A, 1 μg/mL leupeptin and 0.5 TIU aprotinin.
# For the immunoprecipitations, an equal volume of 1% dry milk in RIPA buffer plus 50 μL of resuspended protein A sepharose CL-4B (Pharmacia, Piscataway, N.Y.) was added to supernates and 1 mL of 4% dry milk containing protein A sepharose CL-4B to cell lysates and samples rotated for 30 minutes at 4° C. Beads were then centrifuged down, samples transferred to fresh tubes and incubated overnight with 40 μg rabbit anti-human IL-1β polyclonal antibody (Genzyme, Cambridge, Mass.). The IL-1β proteins were then precipitated with 70 μL protein A sepharose, resuspended in 60 μL SDS sample buffer and run on 15% SGD-PAGE gels. Autoradiography was performed on dried gels and the amount of radioactivity (counts per minute, cpm) quantitated using a Betascope 603 analyzer.
# In the monocyte pulse chase assay, each test parameter was run in duplicate. Data was collected from the Beta Scope using a personal computer, then transferred to the VAX system for calculation of mean cpm and standard deviation of the mean. When test compounds were evaluated, the percent inhibition of release of mature IL-1β was calculated as follows:
# 100×[1-(cells treated with stimuli+test compound-unstimulated cells)/(cells treated with stimuli+control compound-unstimulated cells)]
# These % inhibition values were then used to calculate IC50 value for each compound. Since the human monocyte pulse chase assay uses primary cells from different donors, each test compound was run in 2-3 separate experiments, using monocytes from 2-3 different donors.
# IL-1 receptor [2] = conditions: colitis model; cited from earlier work
# IL-1 receptor [3] = conditions: PG-APS arthritis, rats; cited from earlier work
# [4] = test system: acute myelogenous leukemia cells; conditions: cited from earlier work
# IL-1 receptor [5] = conditions: open-label human trial, subcutaneous; cited from earlier work
# [6] = test system: chronic myelogenous leukemia cells; conditions: cells removed from chronic myelogenous leukemia patients; cited from earlier work
IC50 [1] [µM],Compound,mode of inhibition / binding kinetics (ICE (IL-1β protease)),tissue necrosis and number of inflammatory cells in the colon (IL-1 receptor [2]),joint swelling (IL-1 receptor [3]),blast proliferation inhibition [4],efficacy in Rheumatoid Arthritis (IL-1 receptor [5]),colony growth inhibition [6]
< 10,O=C[C@H](CC(=O)O)NC(=O)[C@@H]1CCCN2C(=O)CC[C@H](NC(=O)OCc3ccccc3)C(=O)N12 [Example 2],reversible inhibitors and display slow binding kinetics,,,,,
< 10,O=C[C@H](CC(=O)O)NC(=O)[C@@H]1CCCN2C(=O)CC[C@H](NC(=O)c3ccccc3)C(=O)N12 [Example 21],reversible inhibitors and display slow binding kinetics,,,,,
< 10,O=C[C@H](CC(=O)O)NC(=O)[C@@H]1CCCN2C(=O)CC[C@H](NC(=O)c3ccc(OCC(=O)O)cc3)C(=O)N12 [Example 22],reversible inhibitors and display slow binding kinetics,,,,,
,IL-1ra: IL-1 receptor antagonist,,reduced tissue necrosis and the number of inflammatory cells in the colon,supresses joint swelling,Inhibition of Acute Myelogenous Leukemia Blast Proliferation,shows efficacy,inhibit colony growth
